Data reported in patent EP0488965A1, “Phthalidilidene derivatives of carnitine and alkanoylcarnitines and pharmaceutical compositions containing them” (Sigma-Tau Industrie Farmaceutiche Riunite S.p.A., priority 1990, dated 1992).

What was measured:
[1] = target: T1, PAF (platelet activating factor) receptors (Oryctolagus cuniculus, UniProt G1TEI7); test: Binding to PAF receptors (3H-PAF displacement in rabbit platelets); details: 50% inhibiting concentration of specific receptor binding, 3H-PAF 0.5 nM, 30 minutes at 25°C
T1 construct: Blood was drawn via indracardiac puncture from male rabbits; from tissue; host or cells: Platelets from the blood of male rabbits (HY/CR strain, Charles River, Italy)
T1 sequence (G1TEI7 1-342): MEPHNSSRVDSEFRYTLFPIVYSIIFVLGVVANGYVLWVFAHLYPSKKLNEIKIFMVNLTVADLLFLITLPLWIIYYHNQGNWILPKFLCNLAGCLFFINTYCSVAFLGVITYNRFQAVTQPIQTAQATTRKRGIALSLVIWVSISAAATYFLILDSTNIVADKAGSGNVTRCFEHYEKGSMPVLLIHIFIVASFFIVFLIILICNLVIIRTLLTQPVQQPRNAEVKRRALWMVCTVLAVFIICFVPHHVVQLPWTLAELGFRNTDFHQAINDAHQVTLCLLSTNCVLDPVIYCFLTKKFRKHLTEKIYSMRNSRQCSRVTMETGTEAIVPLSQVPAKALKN
Procedure: The binding of the compounds under examination to rabbit platelet receptors was studied following the procedure disclosed by D. Nunez et al, Eur J. Pharmacol. 123, 197 (1986).
Blood was drawn via indracardiac puncture from male rabbits (HY/CR strain-Charles River, Italy) weighing 2.5-3.0 Kg.
Blood was diluted (1:9) in a ACD (0.8% citric acid, 2.2% trisodium citrate, 2.45% glucose, weight percentages) solution and centrifuged at 100 x g for 15 minutes.
The precipitate was suspended in the incubation buffer at […] platelet/ml concentration, immediately before binding.
The platelet number and possible erythrocyte contamination was controlled with a platelet counter DELCON CA480.
Platelets were incubated in polyethylene tubes with ³H-PAF (0.5 nM) for 30 minutes at 25°C. The test compounds were added to a volume of 200 µl. The final volume was equal to 500 µl. Incubation was stopped by rapid filtration under vacuum through GF/C filters (WHATMAN) washed with (3x3 ml) cold incubation buffer using a Brondel Cell Harvester filtration system. The filters were counted in 8 mL OptiFluor (Packard) using a TRI-CARB 1900 CA-Packard liquid scintillation spectrometer (about 50% counting efficiency).
The percentage of inhibition of the specific binding receptor-radioligand was calculated for each concentration (mean of incubations in triplicate).
The competition curve, the slope of the curve, and the IC₅₀ value (concentration which inhibits 50% of the specific radioligand-receptor binding) were calculated with the "All fit" program (A. De Lean et al., Am. J. Physiol. 235, E97, 1978) runned in a 55-SX IBM computer.

mice = test: Observation of behaviour and death rate in mice (Irwin method); format: in vivo; details: for SYMPTOMS: male mice, 4 animals/dose, n.e. = no effect; for DEATH RATE: mouse, in vivo
Procedure: The observation of normal behaviour in mice was conducted following the method by S. Irwin, Psychopharmacologia 13, 222 ( 1968). This method allows alterations of some behavioural, neurophysiological and neurovegetative parameters directly detectable by the experimenter to be visualized.
The test was conducted in male mice [Crl;(CD-I)(ICR)BR, Charles River - Italy] weighing 22-25 g, following oral administration of the compounds suspended in carboxymethylcellulosa (0.5% by weight in H₂O) to groups of 4 animals/dose.
The animals were kept under continuous observation for five hours following treatment and twice a day for the subsequent five days.
Death rate was also observed during the whole test period. The initial administered dose was 1,000 mg/kg per os; lower doses were administered following death of some animals or after marked effects at the initial dose were dected.

[2] = tested on: ADP-induced platelet aggregation; test: ADP-induced platelet aggregation in platelet rich plasma; format: cell-based, rats; details: 2 min, compound 10^-5M, 2 minutes of incubation, rat PRP
Procedure: (§1) Platelet aggregation was determined photometrically (G.V.R. Born, Nature 194, 927; 1962) with an ELVI 840 aggregometer in plastic tubes under continuous stirring at 1000 rpm.
(§2) Maximal light transmission (100% ) was recorded by reading PPP, while 0% transmission was recorded by reading PRP. The PRP aggregation degree induced by the aggregation factor (PAF) was calculated as percentage of maximal light transmittance obtained with PPP using 250 µL samples of PRP.
(§3) The compounds were dissolved in bidistilled water at the concentration of 10⁻⁵ M and tested after 2 minutes of incubation.
(§4) Aggregation inhibition was calculated as percentage of the value obtained in the presence of the aggregating agent only.
Blood was drawn from the abdominal aorta of male rats (Crl:(WI)BR, Charles River, Italy) under barbiturate anaesthesia and quickly transferred into plastic tubes containing 0.1 mL/mL blood of 3.8% (by weight) solution of sodium citrate. PRP was obtained by plasma centrifugation at 115 x g for 5 minutes at 22°C and PPP by centrifugation at 1600 x g for 10 minutes. The final PRP platelet number was adjusted to the fixed value of […] of PRP by adding PPP.
Platelet count was made with a CA580 A(Delcan) platelet counter. The same procedure outlined in the paragraph "PAF aggregation" was followed for the ADP-induced aggregation.

[3] = tested on: PAF-induced platelet aggregation; test: PAF-induced platelet aggregation in platelet rich plasma; format: cell-based, rabbits; details: Oryctolagus cuniculus, 2 min, compound 10^-5M, 2 minutes of incubation, rabbit PRP
Procedure: Blood was collected from male rabbits (HY/Charles River, Italy) by heart puncture using a plastic syringe and transferred immediately into plastic tubes containing 3.8% (by weight) solution of sodium citrate (0.1 ml/ml blood).
PRP (Platelet Rich Plasma) was obtained by plasma centrifugation at 145 x g for 5 minutes at 22°C. Platelet number was determined with a CA 580A (Delcon) "platelet counter". The platelet number was adjusted to the fixed value of […] by adding PPP (Platelet Poor Plasma). PPP was obtained by centrifuging blood at 1600 x g for 10 minutes at 22°C.
as §1, §2, §3, §4

SMILES | IC50 [1] [nM] | SYMPTOMS (mice; 600 mg/kg per os) | SYMPTOMS (mice; 1000 mg/kg per os) | DEATH RATE (mice; 600 mg/kg) | DEATH RATE (mice; 1000 mg/kg) | inhibition at 10 µM [2] [%] | inhibition at 10 µM [3] [%]
C[N+](C)(C)C[C@H](O)CC(=O)OC/C=C1\OC(=O)c2ccccc21 [ST 736, (Z)-(3-phtalidylidene)ethyl ester of L-carnitine bromide] | 9300 | n.e. | convulsion, salivation | 0/4 | 3/4 | – | –
CC(=O)O[C@H](CC(=O)OC/C=C1\OC(=O)c2ccccc21)C[N+](C)(C)C [ST 739] | 5300 | n.e. | jerks | 0/4 | 2/4 | – | –
CCC(=O)O[C@H](CC(=O)OC/C=C1\OC(=O)c2ccccc21)C[N+](C)(C)C [ST 768] | 6700 | n.e. | convulsion, salivation diarrhea, lacrimation | 0/4 | 1/4 | – | –
CC(C)C(=O)O[C@H](CC(=O)OC/C=C1\OC(=O)c2ccccc21)C[N+](C)(C)C [ST 775] | 2000 | – | n.e. | – | 0/4 | – | –
CC(C)CC(=O)O[C@H](CC(=O)OC/C=C1\OC(=O)c2ccccc21)C[N+](C)(C)C [ST 776] | 3600 | n.e. | convulsion, salivation | 0/4 | 2/4 | 5 | 100
C[N+](C)(C)C[C@H](O)CC(=O)OC/C=C1\OC(=O)c2cc(Cl)ccc21 [ST 801] | 20 | – | salivation | – | 0/4 | 7 | 97
CC(C)CC(=O)O[C@H](CC(=O)OC/C=C1\OC(=O)c2cc(Cl)ccc21)C[N+](C)(C)C [ST 803] | 6.6 | – | diarrhea | – | 0/4 | 8 | 72
CC(=O)O[C@H](CC(=O)OC/C=C1\OC(=O)c2cc(Cl)ccc21)C[N+](C)(C)C [ST 804] | 19 | salivation | salivation | 0/4 | 1/4 | 13 | 96
CCC(=O)O[C@H](CC(=O)OC/C=C1\OC(=O)c2cc(Cl)ccc21)C[N+](C)(C)C [ST 805] | 22 | salivation | salivation | 0/4 | 1/4 | 10 | 40
CC(C)C(=O)O[C@H](CC(=O)OC/C=C1\OC(=O)c2cc(Cl)ccc21)C[N+](C)(C)C [ST 806] | 18 | salivation | salivation | 0/4 | 1/4 | 18 | 95
